What was measured:
[1] = DPPH free radical scavenging assay; conditions: read-out: DPPH IC50; 0.1 mM DPPH, 30 min, 517 nm; mean ± SD
[2] = test system: HEK-293 (normal human embryonic kidney) cells; assay: Cytotoxicity assay; format: cell-based; conditions: HEK293, 48 h, read-out: IC50 (HEK-293)
[3] = test system: Plasmodium falciparum 3D7; assay: Antimalarial assay; format: cell-based
[4] = test system: MCF-7 (human breast adenocarcinoma) cells; assay: Cytotoxicity assay; format: cell-based; conditions: MCF7, 48 h, read-out: IC50 (MCF-7)

| SMILES | IC50 [1] [µM] | IC50 [2] [µM] | IC50 ([3]; Plasmodium falciparum, 3D7, 72 h, read-out: Antimalarial IC50) [µM] | Selectivity index (HEK/IC50) ([3]; SI = IC50 (HEK-293)/IC50 (antimalarial)) | IC50 [4] [µM] |
| --- | --- | --- | --- | --- | --- |
| O=C1O[C@H]([C@@H](O)CO)C(O)=C1O [Ascorbic acid, reference compound] | 5.21 ± 0.06 | – | – | – | – |
| CC(=NNC(=S)NN=C(C(=NO)c1ccccc1)c1ccccc1)c1ccccc1C [HBMT-MA7, N'-[2-(Hydroxyimino)-1,2-diphenylethylidene]-2-[1-(o-tolyl)ethylidene]hydrazine-1-carbothiohydrazide] | 10.5 ± 0.19 | 68.2 ± 1.8 | 2.91 ± 0.14 | 23.4 | 29.7 ± 1 |

— publication PMC12559995 (RSC Advances, 2025)
